One assay relates to control melanocytes. It counts as cell-based, human. Particulars: 10 days exposure; only at the highest concentration step 5.0 μg/ml.
Assay [1] deals with Parkinson's melanocytes and normal adult control melanocytes. Put plainly: short time exposure (24 h), DNA synthesis by 3HdT incorporation and scintillation counts. The format is cell-based, human. Particulars: 24 h exposure; 0.5 μg/ml to 5.0 μg/ml.

Take `CCCCC[C@H](O)/C=C/[C@H]1C(=O)C=C[C@@H]1C/C=C\CCCC(=O)O` [PGJ2]: the “impact on the growth of the control melanocytes” value in the assay with control melanocytes is reported as “negative impact on the growth”. Further, in assay [1], the “difference in vulnerability between Parkinson's melanocytes and normal adult control melanocytes (DNA synthesis, 3HdT incorporation)” value (from here on “difference”) is listed as “no significant different in vulnerability”.

On to `CCCCC[C@H](O)/C=C/[C@H]1[C@H](O)CC(=O)[C@@H]1C/C=C\CCCC(=O)O` [PGE2], for which, in assay [1], the “difference” value is on record as “no significant different in vulnerability”.

On to `CCCCC[C@H](O)/C=C/[C@H]1C=CC(=O)[C@@H]1C/C=C\CCCC(=O)O` [PGA2], for which the “impact on the growth of the control melanocytes” value in the assay on control melanocytes was “negative impact on the growth”. In addition, the “difference” value in assay [1] is given as “no significant different in vulnerability”.

For the compound `CCCCC[C@H](O)/C=C/[C@@H]1[C@@H](C/C=C\CCCC(=O)O)[C@@H](O)C[C@H]1O` [PGF2a], the “difference” value in assay [1] was “no significant different in vulnerability”.

The values above are taken from patent US20070071727A1, “Melanocytes in therapy of neurodegenerative diseases” (priority 2003, published 2007).
